Experimental findings from patent publication US20120142656A1, “BUCCAL APPLICATION SYSTEM COMPRISING 17A-ESTRADIOL” (BAYER PHARMA AKTIENGESELLSCHAFT, priority 2009, published 2012) are described below.

Common to all, as to assay type: in vivo
Data set [1] relates to postmenopausal or ovarectomized women. Kind of data set: endometrial thickness by transvaginal ultrasound in clinical study. The following applies: 0.4 mg buccal tablet. How it is done:
Hot flashes were recorded before the beginning of treatment and on one of the last 3 days of treatment week 4. This was carried out according to subjective criteria (number and severity of the events) using patient diaries and objectively by continuous measurement of the skin temperature. In addition, the measurement of the endometrial thickness was carried out by transvaginal ultrasound investigations.

Data set [2] shares this test system. Description: double-blind, randomized crossover clinical study: hot flashes (patient diaries, skin temperature). The following applies: 0.4 mg buccal tablet. How it is done: Hot flashes were recorded before the beginning of treatment and on one of the last 3 days of treatment week 4. This was carried out according to subjective criteria (number and severity of the events) using patient diaries and objectively by continuous measurement of the skin temperature.

Data set [3] has the same test system. Description: tolerability: monitoring of undesired events and laboratory investigations in clinical study. To be noted: 0.4 mg buccal tablet, versus placebo group. How it is done: Hot flashes were recorded before the beginning of treatment and on one of the last 3 days of treatment week 4. This was carried out according to subjective criteria (number and severity of the events) using patient diaries and objectively by continuous measurement of the skin temperature. Moreover, the tolerability of the treatment regime was determined by monitoring of undesired events and standardized laboratory investigations.

With `C[C@]12CC[C@@H]3c4ccc(O)cc4CC[C@H]3[C@@H]1CC[C@H]2O` [17α-estradiol], the “endometrial thickness measured by transvaginal ultrasound” value in data set [1] is recorded as “not significantly altered”. Also, the “number of hot flashes per 24 h” value in data set [2] (after treatment for 4 weeks, before treatment 11.9±2.1, patient diaries) is 3.1±1.8 per 24 h. Moreover, in data set [2] (drug group versus placebo), the “effect on number and intensity of hot flashes” value is “rapid reduction of the number and intensity of hot flashes”. Further, the side-effect profile result in data set [3] is listed as “comparable”.
